Like-named read-outs stand apart in the source and are kept apart here. Blank lines part the entries; values can stand above or below the molecule they belong to.
How the values were obtained:
[1] = test system: normal diploid human fibroblasts (MRC-5 pd30); assay: in vitro; assay type: cell-based
Description: (§1) Cells were plated and incubated overnight to allow them to adhere as monolayers. A working stock of each test compound was transferred to an intermediate 384-well plate and pre-diluted with minimum essential media (MEM). The pre-diluted stocks were then transferred onto the cell monolayers, and the plates were incubated for 68 h. Resazurin, to a final concentration of 50 μM was added to each well, after which plates were incubated for a further 3 h and measured for fluorescence (λ ex = 528 nm, λ em = 590 nm).
(§2) All data were processed using IDBS ActivityBase. […] The formula used to calculate Z’ is 1-3×(StDev_high+StDev_low)/ABS(Mean_high-Mean_low) .
(§3) All EC50 Curve fitting was undertaken using XLFit version 4.2 using Model 205 with the following 4 parametric equation: y=A+B-A/1+[…], where A = % inhibition at bottom, B = % inhibition at top, C = EC50, D = slope, x = inhibitor concentration and y = % inhibition.

[2] = test system: Plasmodium falciparum; assay: [3H]-Hypoxanthine incorporation assay (orthogonal, radiometric); assay type: cell-based
Description: Cultures of 3D7, a P. falciparum chloriquine sensitive reference strain, were maintained in a 5% suspension of A+ human red blood cells (obtained from East of Scotland Blood Transfusion Service, Ninewells Hospital, Dundee, UK) cultured in RPMI 1640 medium (pH 7.3) supplemented with 0.5% Albumax II (Gibco Life Technologies, San Diego, CA, USA), 12 mM sodium bicarbonate, 0.2 mM hypoxanthine, and 20 mg/l gentamicin at 37 °C, in a humidified atmosphere of 1% O2, 3% CO2 with a balance of nitrogen. Growth inhibition was quantified using a fluorescence assay utilizing the binding of SYBR Green I to double stranded DNA, which emits a fluorescent signal at 528 nm after excitation at 485 nm. The SYBR Green assay system was adapted to maximize robustness and to align with available automation systems. The Prestwick Library then used as a pilot screen to validate the performance of the optimized assay. […] Single point screens were carried out, and the potency of compounds of interest was determined in duplicate on two independent occasions. A 96-well [^3H]-Hypoxanthine incorporation assay was also developed as a secondary assay in order to validate key compounds from each hit series in an orthogonal platform.
The traditionally used [^3H]-hypoxanthine incorporation assay is labour intensive, low throughput and requires the use of radio-labelled hypoxanthine.

[3] = test system: Plasmodium falciparum 3D7; assay: microbe, parasite or virus in culture
Description: Growth inhibition was quantified using a fluorescence assay utilizing the binding of SYBR Green I to double stranded DNA, which emits a fluorescent signal at 528 nm after excitation at 485 nm. The SYBR Green assay system was adapted to maximize robustness and to align with available automation systems. The Prestwick Library then used as a pilot screen to validate the performance of the optimized assay. […] Single point screens were carried out, and the potency of compounds of interest was determined in duplicate on two independent occasions. A 96-well [^3H]-Hypoxanthine incorporation assay was also developed as a secondary assay in order to validate key compounds from each hit series in an orthogonal platform.
as §2
Two independent assays were run.

[4] = test system: normal diploid human fibroblasts (MRC-5 pd30); conditions: read-out: MRC5 EC50, cited from earlier work
[5] = test system: Plasmodium falciparum 3D7; conditions: Table 7, MMV04 SAR; data reported previously ref 24, 25; read-out: P. fal. EC50; cited from earlier work
[6] = in vitro; assay type: cell-based; conditions: human, MRC-5 pd30 normal diploid fibroblasts (monolayers); Table 8, MMV03 SAR; read-out: MRC5 EC50
Description: as §1, §2, §3

[7] = Table 4, primary hits of kinase library, read-out: EC50 MRC5 cells
[8] = Table 6, MMV02 SAR, read-out: MRC5 EC50
[9] = C.I. 95%, n = 2, read-out: EC50 Radiometric ([3H]-hypoxanthine)
[10] = read-out: EC50 Fluorescent (SYBR Green), C.I. 95%, n = 4
[11] = read-out: EC50 P. falciparum, Table 4, primary hits of kinase library
[12] = read-out: P. fal. EC50, Table 6, MMV02 SAR
[13] = Table 8, MMV03 SAR, read-out: MRC5 EC50
[14] = read-out: P. fal. EC50, Table 8, MMV03 SAR
[15] = Table 7, MMV04 SAR, read-out: MRC5 EC50
[16] = read-out: P. fal. EC50, Table 7, MMV04 SAR
[17] = Plasmodium falciparum, 3D7, read-out: P. fal. EC50

Compound: O=C(Nc1cccnc1)c1cc(-c2cccnc2)nc2ccc(Br)cc12 [Compound A0004]
EC50 [1, 7]: > 15 µM
EC50 [1, 15]: > 15 µM
EC50 [2, 9]: 0.41 ± 0.47 µM
EC50 [3, 10]: 0.7 ± 0.07 µM
EC50 [3, 11]: 0.7 µM
EC50 [3, 16]: 0.7 µM

Compound: Fc1ccccc1-c1cc(Nc2ccncc2)nc(-c2ccccc2)n1 [Compound A0021]
EC50 ([4]; Table 6, MMV02 SAR, data reported previously ref 23): > 50 µM

Compound: CCOC(=O)c1ccc(NC(=O)c2cc(-c3cccnc3)nc3ccc(Cl)cc23)cc1 [Compound A0024]
EC50 [1, 15]: 18 µM
EC50 [3, 16]: 0.2 µM

Compound: Cc1ccc(-c2cc(C(=O)Nc3cccnc3)c3cc(Br)ccc3n2)cc1 [Compound A0031]
EC50 [5]: 0.12 µM
EC50 ([4]; Table 7, MMV04 SAR, data reported previously ref 24, 25): 20 µM
activity against P. falciparum relative to A0004 ([3]; MMV04 series): fivefold more active

Compound: O=C(Nc1ccncc1)c1cn(-c2ccccc2)nc1-c1cccs1 [Compound A0033]
EC50 [1, 13]: 39 µM
LLE (ligand-lipophilicity efficiency) ([3]; Table 8, MMV03 SAR): 2.9
EC50 [3, 14]: 0.7 µM

Compound: CCN(CC)CCNC(=O)c1cn(-c2ccccc2)nc1-c1cccs1 [Compound A0037]
EC50 [1, 13]: 18 µM
LLE (ligand-lipophilicity efficiency) ([3]; Table 8, MMV03 SAR): 2.7
EC50 [3, 14]: 13 µM

Compound: O=C(Nc1cccnc1)c1cn(-c2ccccc2)nc1-c1cccnc1 [Compound A0038]
EC50 [1, 13]: 18 µM
LLE (ligand-lipophilicity efficiency) ([3]; Table 8, MMV03 SAR): 3.2
EC50 [3, 14]: 2 µM

Compound: CC(C)c1nn(-c2ccccc2)cc1C(=O)Nc1cccnc1 [Compound A0039]
EC50 at 68 h [6]: 50 µM
EC50 [3, 17]: 21 µM
LLE (ligand-lipophilicity efficiency) ([3]; Table 8, MMV03 SAR): 2.1

Compound: Cc1nn(-c2ccccc2)cc1C(=O)Nc1cccnc1 [Compound A0040]
EC50 at 68 h [6]: 50 µM
EC50 [3, 17]: 10 µM
LLE (ligand-lipophilicity efficiency) ([3]; Table 8, MMV03 SAR): 2.8

Compound: O=C(Nc1nc2ccccc2[nH]1)c1cn(-c2ccc(F)cc2)nc1-c1cccnc1 [Compound A0042]
EC50 [1, 13]: 14 µM
LLE (ligand-lipophilicity efficiency) ([3]; Table 8, MMV03 SAR): 2.8
EC50 [3, 14]: 0.6 µM

More lines, main results first:

EC50 [1, 8]: 6 µM
EC50 [2, 9]: 0.06 ± 0.07 µM
EC50 [3, 10]: 0.23 ± 0.04 µM
EC50 [3, 11]: 0.2 µM
EC50 [3, 12]: 0.2 µM
Compound: Fc1ccc(-c2cc(Nc3ccncc3)nc(-c3ccccc3)n2)cc1 [Compound A0002]
EC50 [1, 7]: 6 µM

EC50 [1, 13]: > 50 µM
EC50 [2, 9]: 0.15 ± 0.25 µM
LLE (ligand-lipophilicity efficiency) ([3]; Table 8, MMV03 SAR): 3.2
EC50 [3, 10]: 0.59 ± 0.12 µM
EC50 [3, 11]: 0.6 µM
EC50 [3, 14]: 0.3 µM
Compound: O=C(Nc1cccnc1)c1cn(-c2ccccc2)nc1-c1cccs1 [Compound A0003]
EC50 [1, 7]: > 15 µM

EC50 [1, 8]: 11 µM
EC50 [3, 12]: 2.3 µM
Compound: FC(F)(F)Oc1ccc(Nc2cc(-c3cccc(C(F)(F)F)c3)nc(-c3ccccc3)n2)cc1 [Compound A0022]
activity against P. falciparum relative to A0002 ([3]; MMV02 series): tenfold less active

EC50 [1, 13]: 21 µM
LLE (ligand-lipophilicity efficiency) ([3]; Table 8, MMV03 SAR): 2.9
EC50 [3, 14]: 0.5 µM
Compound: O=C(Nc1nc2ccccc2[nH]1)c1cn(-c2ccccc2)nc1-c1cccnc1 [Compound A0032]

EC50 at 68 h [6]: 13 µM
EC50 [3, 17]: 0.8 µM
LLE (ligand-lipophilicity efficiency) ([3]; Table 8, MMV03 SAR): 2
Compound: O=C(Nc1nc2ccccc2[nH]1)c1cn(-c2ccccc2)nc1-c1cccs1 [Compound A0034]

EC50 [1, 13]: 50 µM
LLE (ligand-lipophilicity efficiency) ([3]; Table 8, MMV03 SAR): 1.1
EC50 [3, 14]: 18 µM
Compound: CC(C)CCNC(=O)c1cn(-c2ccccc2)nc1-c1cccs1 [Compound A0036]

EC50 [1, 13]: 15 µM
LLE (ligand-lipophilicity efficiency) ([3]; Table 8, MMV03 SAR): 3.2
EC50 [3, 14]: 0.4 µM
Compound: N#Cc1ccc(-n2cc(C(=O)Nc3nc4ccccc4[nH]3)c(-c3cccnc3)n2)cc1 [Compound A0041]

EC50 at 68 h [6]: > 50 µM
EC50 [3, 17]: 14 µM
LLE (ligand-lipophilicity efficiency) ([3]; Table 8, MMV03 SAR): 1.2
Compound: CC(C)(C)n1cc(C(=O)Nc2nc3ccccc3[nH]2)c(-c2cccnc2)n1 [Compound A0043]

EC50 at 68 h [6]: > 50 µM
EC50 [3, 17]: > 50 µM
LLE (ligand-lipophilicity efficiency) ([3]; Table 8, MMV03 SAR): 2
Compound: Cn1cc(C(=O)Nc2cccnc2)c(-c2cccs2)n1 [Compound A0044]

EC50 [1, 15]: > 50 µM
EC50 [3, 16]: 0.74 µM
Compound: COc1cc(NC(=O)c2cc(-c3cccnc3)nc3ccc(Br)cc23)cc(OC)c1 [Compound A0410]

EC50 [1, 15]: > 50 µM
EC50 [3, 16]: 0.38 µM
Compound: O=C(Nc1cccnc1)c1cc(-c2cccnc2)nc2ccc(Cl)cc12 [Compound A0421]

EC50 ([2]; Plasmodium falciparum, [3H]-hypoxanthine incorporation assay, read-out: EC50): 0.007 to 0.01 µM
EC50 ([3]; Plasmodium falciparum, 3D7): 0.048 ± 0.004 µM
Compound: OC(c1cc(C(F)(F)F)nc2c(C(F)(F)F)cccc12)C1CCCCN1 (stereo not shown) [Mefloquine, reference compound]

From PMC5678585, “Screening a protein kinase inhibitor library against Plasmodium falciparum” (Malaria Journal, 2017)
